Measurements published in PubChem BioAssay (NCI).
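96-well plates; 48 h exposure; 5 concentrations. Endpoints by linear interpolation between flanking doses. Not reached: highest tested concentration assigned. TGI: total growth inhibition.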

Legend:
Assay in all cases: growth of human tumour cells (NCI), 48 h
[1] = system: OVCAR-3 ovarian
[2] = system: SNB-19 CNS
[3] = system: MCF7 breast
[4] = system: KM12 colon
[5] = system: LOX IMVI melanoma
[6] = system: ACHN renal
[7] = system: NCI-H226 lung
[8] = system: MDA-N
[9] = system: COLO 205 colon
[10] = system: RPMI-8226 leukemia
[11] = system: CCRF-CEM leukemia
[12] = system: HCT-15 colon
[13] = system: SK-MEL-5 melanoma
[14] = system: SN12C renal
[15] = system: NCI-H522 lung
[16] = system: OVCAR-5 ovarian
[17] = system: HOP-92 NSCLC
[18] = system: SF-539 CNS
[19] = system: A498 renal
[20] = system: MALME-3M melanoma
[21] = system: A549 NSCLC
[22] = system: DU-145 prostate
[23] = system: CAKI-1 renal
[24] = system: MOLT-4 leukemia
[25] = system: MDA-MB-231 breast
[26] = system: UACC-257 melanoma
[27] = system: OVCAR-8 ovarian
[28] = system: SF-268 CNS
[29] = system: 786-0 renal
[30] = system: SK-OV-3 ovarian
[31] = system: NCI/ADR-RES ovarian
[32] = system: M14 melanoma
[33] = system: SK-MEL-2 melanoma
[34] = system: U251 CNS
[35] = system: SW-620 colon
[36] = system: MDA-MB-435
[37] = system: PC-3 prostate
[38] = system: HOP-62 NSCLC
[39] = system: BT-549 breast
[40] = system: IGROV1 ovarian
[41] = system: UO-31 renal
[42] = system: SF-295 CNS
[43] = system: T-47D breast
[44] = system: HS 578T breast
[45] = system: EKVX NSCLC
[46] = system: NCI-H23 lung
[47] = system: OVCAR-4 ovarian
[48] = system: HCC-2998 colon
[49] = system: HCT-116 colon
[50] = system: HL-60(TB) leukemia
[51] = system: HT29 colon
[52] = system: UACC-62 melanoma
[53] = system: SK-MEL-28 melanoma
[54] = system: RXF 393 renal
[55] = system: NCI-H460 lung
[56] = system: SNB-75 CNS
[57] = system: K-562 leukemia
[58] = system: SR leukemia

## COC(=O)[C@H]1[C@@H](O)[C@@]2(O)c3c(OC)cc(OC)cc3O[C@@]2(c2ccc3c(c2)OCO3)[C@@H]1c1ccccc1
[1]
  TGI: 2.8 µM
[2]
  TGI: 0.00512 µM
[3]
  TGI: 0.0618 µM
[4]
  TGI: 0.113 µM
[5]
  TGI: 0.014 µM
[6]
  TGI: 0.235 µM
[7]
  TGI: 3.23 µM
[8]
  TGI: 2.34 µM
[9]
  TGI: 0.0686 µM
[10]
  TGI: 0.0492 µM
[11]
  TGI: > 50 µM
[12]
  TGI: 0.107 µM
[13]
  TGI: 0.0688 µM
[14]
  TGI: 1.46 µM
[15]
  TGI: 0.741 µM
[16]
  TGI: 0.206 µM
[17]
  TGI: > 50 µM
[18]
  TGI: 0.0279 µM
[19]
  TGI: > 50 µM
[20]
  TGI: 9.69 µM
[21]
  TGI: 0.5 µM
[22]
  TGI: 4.51 µM
[23]
  TGI: 0.264 µM
[24]
  TGI: 0.0482 µM
[25]
  TGI: 0.211 µM
[26]
  TGI: > 50 µM
[27]
  TGI: > 50 µM
[28]
  TGI: 2.11 µM
[29]
  TGI: 0.0944 µM
[30]
  TGI: 1.54 µM
[31]
  TGI: 0.241 µM
[32]
  TGI: 0.0414 µM
[33]
  TGI: 0.45 µM
[34]
  TGI: > 50 µM
[35]
  TGI: > 22.2 µM
[36]
  TGI: > 50 µM
[37]
  TGI: > 18 µM
[38]
  TGI: 0.68 µM
[39]
  TGI: > 50 µM
[40]
  TGI: 0.666 µM
[41]
  TGI: 0.0223 µM
[42]
  TGI: 0.143 µM
[43]
  TGI: > 10.8 µM
[44]
  TGI: 2.13 µM
[45]
  TGI: > 33.3 µM
[46]
  TGI: 0.823 µM
[47]
  TGI: > 10.1 µM
[48]
  TGI: 5.18 µM
[49]
  TGI: 0.4 µM
[50]
  TGI: 0.763 µM
[51]
  TGI: 0.273 µM
[52]
  TGI: > 50 µM

## Oc1cc(O)c2c(c1)O[C@H](c1cc(O)c(O)c(O)c1)[C@@H](O)C2
[1]
  TGI: 46.6 µM
[2]
  TGI: > 100 µM
[53]
  TGI: > 100 µM
[3]
  TGI: 35.2 µM
[5]
  TGI: 37.9 µM
[6]
  TGI: 48 µM
[7]
  TGI: 86.5 µM
[8]
  TGI: 44.2 µM
[9]
  TGI: 35.8 µM
[10]
  TGI: 43.9 µM
[11]
  TGI: 43.4 µM
[12]
  TGI: > 100 µM
[13]
  TGI: 60.2 µM
[54]
  TGI: 30.7 µM
[14]
  TGI: 33 µM
[15]
  TGI: 35.1 µM
[55]
  TGI: 37.7 µM
[16]
  TGI: 34.8 µM
[17]
  TGI: > 10 µM
[18]
  TGI: 40.7 µM
[19]
  TGI: > 100 µM
[20]
  TGI: > 100 µM
[21]
  TGI: > 100 µM
[22]
  TGI: > 100 µM
[23]
  TGI: > 100 µM
[24]
  TGI: > 10 µM
[25]
  TGI: 34 µM
[26]
  TGI: > 100 µM
[27]
  TGI: 31.1 µM
[28]
  TGI: 58.7 µM
[29]
  TGI: 32.8 µM
[30]
  TGI: 74.7 µM
[31]
  TGI: > 100 µM
[32]
  TGI: 57.6 µM
[33]
  TGI: 64.8 µM
[34]
  TGI: 34.5 µM
[56]
  TGI: 38.7 µM
[35]
  TGI: 32.7 µM
[36]
  TGI: 38.1 µM
[37]
  TGI: 76.2 µM
[38]
  TGI: 34 µM
[39]
  TGI: 51.5 µM
[40]
  TGI: 38.9 µM
[41]
  TGI: 35.9 µM
[42]
  TGI: 73.2 µM
[43]
  TGI: 68.7 µM
[44]
  TGI: > 100 µM
[45]
  TGI: 94.9 µM
[57]
  TGI: 38.2 µM
[46]
  TGI: 58.2 µM
[47]
  TGI: 48.7 µM
[48]
  TGI: > 10 µM
[49]
  TGI: 33.2 µM
[50]
  TGI: 45.4 µM
[58]
  TGI: 39.1 µM
